pIC50: −log10 of the molar value. Activity calls are given as the source filed them. The rule behind the calls is not given here.
What was measured:
[1] = biological target: CDK12/Cyclin K (Homo sapiens, UniProt Q9NYV4); assay: Inhibition of recombinant N-terminal GST/His6-fusion tagged human CDK12/Cyclin K expressed in Sf9 insect cells incubated for 20 mins followed by [33P]gamma-ATP addition and measured after 2 hrs by radiometric HotSpot Kinase assay
[2] = test system: EMT6; assay: Antitumor activity against mouse EMT6 cells implanted in BALB/c mouse syngenic model assessed as downregulation of Ki67 level in tumor at 20 to 40 mg/kg, po qd measured after 18 days by immunohistochemical analysis; format: functional, organism-based; conditions: dose 20-40 mg/kg, time 18.0 day
[3] = Inhibition of recombinant full length N-terminal GST/His6-fusion tagged human CDK9/Cyclin T1 expressed in Sf9 insect cells incubated for 20 mins followed by [33P]gamma-ATP addition and measured after 2 hrs by radiometric HotSpot Kinase assay
[4] = test system: EMT6; assay: Antitumor activity against mouse EMT6 cells implanted in BALB/c mouse syngenic model assessed as downregulation of pERK level in tumor at 20 to 40 mg/kg, po qd measured after 18 days by immunohistochemical analysis; format: functional, organism-based; conditions: dose 20-40 mg/kg, time 18.0 day
[5] = Volume of distribution in ICR mouse at 1 mg/kg, iv measured upto 24 hrs by LC-MS/MS analysis; format: ADME, organism-based; conditions: in vivo
[6] = test system: EMT6; assay: Antitumor activity against mouse EMT6 cells implanted in BALB/c mouse syngenic model assessed as downregulation of Ki67 level in tumor at 20 mg/kg, po bid measured after 18 days by immunohistochemical analysis; format: functional, organism-based; conditions: time 18.0 day
[7] = test system: EMT6; assay: Antitumor activity against mouse EMT6 cells implanted in BALB/c mouse syngenic model assessed as downregulation of p-retinoblastoma level in tumor at 20 to 40 mg/kg, po qd measured after 18 days by immunohistochemical analysis; format: functional, organism-based; conditions: dose 20-40 mg/kg, time 18.0 day
[8] = biological target: Cyclin-dependent kinase 4 (Homo sapiens) (UniProt P11802); assay: Inhibition of CDK4 downstream signalling in human MDA-MB-231 cells assessed as decrease in p-retinoblastoma protein level measured after 72 hrs by Western blot analysis; format: cell-based; conditions: dose 1.25-20 µM, DDE = dose-dependent effect
Cyclin-dependent kinase 4 (Homo sapiens), sequence (P11802 whole entry): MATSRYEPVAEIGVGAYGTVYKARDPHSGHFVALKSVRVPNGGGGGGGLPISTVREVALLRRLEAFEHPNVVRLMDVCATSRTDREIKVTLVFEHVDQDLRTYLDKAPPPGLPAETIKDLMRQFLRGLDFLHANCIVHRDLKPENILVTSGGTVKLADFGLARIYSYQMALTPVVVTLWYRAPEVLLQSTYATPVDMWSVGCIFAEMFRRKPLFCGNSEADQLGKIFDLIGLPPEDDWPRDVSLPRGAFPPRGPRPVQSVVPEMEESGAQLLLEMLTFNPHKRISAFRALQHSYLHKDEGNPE

[9] = biological target: Cyclin-dependent kinase 7/ cyclin H (Homo sapiens, UniProt P50613); assay: Inhibition of CDK7/Cyclin H (unknown origin) incubated for 20 mins followed by [33P]gamma-ATP addition and measured after 2 hrs by radiometric HotSpot Kinase assay; format: protein-complex assay
Cyclin-dependent kinase 7/ cyclin H, sequence (P51946 whole entry): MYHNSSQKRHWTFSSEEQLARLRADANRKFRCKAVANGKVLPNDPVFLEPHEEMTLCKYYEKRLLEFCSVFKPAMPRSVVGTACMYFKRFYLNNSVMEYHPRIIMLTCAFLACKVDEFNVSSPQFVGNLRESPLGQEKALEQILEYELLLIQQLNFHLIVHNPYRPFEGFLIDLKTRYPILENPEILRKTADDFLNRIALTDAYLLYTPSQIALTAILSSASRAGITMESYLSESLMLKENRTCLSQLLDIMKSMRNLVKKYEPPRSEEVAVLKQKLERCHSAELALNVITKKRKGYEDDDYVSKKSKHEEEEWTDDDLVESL
Cyclin-dependent kinase 7/ cyclin H, sequence (P50613 whole entry): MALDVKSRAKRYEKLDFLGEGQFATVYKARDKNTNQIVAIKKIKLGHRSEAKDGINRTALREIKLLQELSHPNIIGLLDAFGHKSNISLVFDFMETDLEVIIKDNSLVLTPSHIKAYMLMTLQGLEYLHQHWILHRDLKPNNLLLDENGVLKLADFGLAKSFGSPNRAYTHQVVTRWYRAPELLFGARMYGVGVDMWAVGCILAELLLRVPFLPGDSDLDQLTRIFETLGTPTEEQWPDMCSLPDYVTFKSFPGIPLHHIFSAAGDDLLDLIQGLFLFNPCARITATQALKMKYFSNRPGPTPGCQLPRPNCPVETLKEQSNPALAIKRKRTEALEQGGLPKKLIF

[10] = test system: MDA-MB-231; assay: Induction of apoptosis in human MDA-MB-231 cells assessed as viable cells at 3 uM measured after 48 hrs by Annexin V-FITC/PI staining based flow cytometric analysis (reference value: 98.04%); format: functional; conditions: read-out: Activity
[11] = test system: MDA-MB-231; assay: Induction of apoptosis in human MDA-MB-231 cells assessed as necrotic cells at 3 uM measured after 48 hrs by Annexin V-FITC/PI staining based flow cytometric analysis (reference value: 0.58%); format: functional
[12] = test system: EMT6; assay: Antiproliferative activity against mouse EMT6 cells assessed as inhibition of cell growth incubated for 48 hrs by MTT assay; format: functional, cell-based; conditions: Mus musculus, EMT6, 48 h
[13] = test system: MDA-MB-231; assay: Induction of apoptosis in human MDA-MB-231 cells assessed as necrotic cells at 1 uM measured after 48 hrs by Annexin V-FITC/PI staining based flow cytometric analysis (reference value: 0.58%); format: functional
[14] = biological target: T1, Tyrosine-protein phosphatase non-receptor type 11 (Homo sapiens, UniProt Q06124); assay: Inhibition of SHP2 PTP domain (unknown origin) using DiFMUP as substrate preincubated for 20 mins followed by substrate addition and measured for 2 hrs by fluorescence based analysis
T1 sequence (Q06124 whole entry): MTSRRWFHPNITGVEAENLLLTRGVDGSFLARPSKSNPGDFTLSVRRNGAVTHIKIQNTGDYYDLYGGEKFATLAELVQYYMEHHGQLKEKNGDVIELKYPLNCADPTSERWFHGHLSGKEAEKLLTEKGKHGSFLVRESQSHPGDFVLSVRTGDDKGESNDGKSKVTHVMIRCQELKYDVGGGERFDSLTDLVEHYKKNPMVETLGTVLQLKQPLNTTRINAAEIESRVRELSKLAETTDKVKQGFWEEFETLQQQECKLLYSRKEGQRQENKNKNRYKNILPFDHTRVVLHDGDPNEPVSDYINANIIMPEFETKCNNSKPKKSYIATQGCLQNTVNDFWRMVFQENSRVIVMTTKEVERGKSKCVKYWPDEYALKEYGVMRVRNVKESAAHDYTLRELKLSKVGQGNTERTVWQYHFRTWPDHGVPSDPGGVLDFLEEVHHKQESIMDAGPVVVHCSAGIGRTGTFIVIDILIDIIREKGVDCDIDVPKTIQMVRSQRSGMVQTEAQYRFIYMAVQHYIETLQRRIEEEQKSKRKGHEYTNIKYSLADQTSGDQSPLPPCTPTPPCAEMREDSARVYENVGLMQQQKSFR

[15] = AUC in ICR mouse at 1 mg/kg, iv measured upto 24 hrs by LC-MS/MS analysis; format: ADME, organism-based; set-up: time < 24 hrs, dose 1 mg/kg, route iv; conditions: in vivo
[16] = Cmax in ICR mouse at 1 mg/kg, iv measured upto 24 hrs by LC-MS/MS analysis; format: ADME, organism-based; set-up: time < 24 hrs, dose 1 mg/kg, route iv; conditions: in vivo
[17] = Terminal half life in ICR mouse at 10 mg/kg, po measured upto 24 hrs by LC-MS/MS analysis; format: ADME, organism-based; conditions: in vivo, read-out: beta t1/2 (converted)
[18] = biological target: CDK2/Cyclin-E2 (Homo sapiens, UniProt O96020+P24941); assay: Inhibition of recombinant N-terminal GST/His6-fusion tagged human CDK2/Cyclin E2 expressed in Sf9 insect cells incubated for 20 mins followed by [33P]gamma-ATP addition and measured after 2 hrs by radiometric HotSpot Kinase assay
[19] = AUC in ICR mouse at 10 mg/kg, po measured upto 24 hrs by LC-MS/MS analysis; format: ADME, organism-based; set-up: time < 24 hrs, dose 10 mg/kg, route po; conditions: in vivo
[20] = test system: EMT6; assay: Antitumor activity against mouse EMT6 cells implanted in BALB/c mouse syngenic model assessed as tumor growth inhibition at 40 mg/kg, po qd and measured after 18 days relative to control; format: functional; conditions: EMT6, 432 h, time 18 day, read-out: TGI
[21] = test system: MDA-MB-231; assay: Induction of cell cycle arrest in human MDA-MB-231 cells assessed as accumulation of cells in G0/G1 phase at 3 uM incubated for 48 hrs by RNase/propidium iodide staining based flow cytometry analysis (reference value: 26.2%); format: functional
[22] = test system: MDA-MB-231; assay: Induction of apoptosis in human MDA-MB-231 cells assessed as early apoptotic cells at 1 uM measured after 48 hrs by Annexin V-FITC/PI staining based flow cytometric analysis (reference value: 0.32%); format: functional
[23] = test system: MDA-MB-468; assay: Antiproliferative activity against human MDA-MB-468 cells assessed as inhibition of cell growth incubated for 48 hrs by MTT assay; format: functional, cell-based; conditions: Homo sapiens, MDA-MB-468, 48 h
[24] = test system: MDA-MB-231; assay: Induction of apoptosis in human MDA-MB-231 cells assessed as late apoptotic cells at 1 uM measured after 48 hrs by Annexin V-FITC/PI staining based flow cytometric analysis (reference value: 1.06%); format: functional
[25] = test system: EMT6; assay: Antitumor activity against mouse EMT6 cells implanted in BALB/c mouse syngenic model assessed as downregulation of pERK level in tumor at 20 mg/kg, po bid measured after 18 days by immunohistochemical analysis; format: functional, organism-based; conditions: time 18.0 day
[26] = Clearance in ICR mouse at 1 mg/kg, iv measured upto 24 hrs by LC-MS/MS analysis; format: ADME, organism-based; conditions: in vivo

CDK12/Cyclin K, sequence (O75909 whole entry, the tested form may be a part): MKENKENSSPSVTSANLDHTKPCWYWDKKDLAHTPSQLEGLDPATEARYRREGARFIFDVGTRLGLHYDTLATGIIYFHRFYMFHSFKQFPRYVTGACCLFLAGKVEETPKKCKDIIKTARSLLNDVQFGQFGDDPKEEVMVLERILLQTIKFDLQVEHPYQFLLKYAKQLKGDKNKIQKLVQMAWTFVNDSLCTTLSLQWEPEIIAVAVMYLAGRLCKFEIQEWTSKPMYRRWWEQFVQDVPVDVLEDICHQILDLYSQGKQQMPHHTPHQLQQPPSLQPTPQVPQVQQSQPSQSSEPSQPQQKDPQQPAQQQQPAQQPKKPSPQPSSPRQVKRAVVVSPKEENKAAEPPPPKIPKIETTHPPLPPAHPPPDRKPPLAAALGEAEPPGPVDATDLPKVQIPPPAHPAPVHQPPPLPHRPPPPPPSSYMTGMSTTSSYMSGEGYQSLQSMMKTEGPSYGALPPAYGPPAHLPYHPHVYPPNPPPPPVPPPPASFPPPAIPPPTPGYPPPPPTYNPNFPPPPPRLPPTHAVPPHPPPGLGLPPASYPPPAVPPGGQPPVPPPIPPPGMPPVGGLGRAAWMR
CDK12/Cyclin K, sequence (Q9NYV4 whole entry, the tested form may be a part): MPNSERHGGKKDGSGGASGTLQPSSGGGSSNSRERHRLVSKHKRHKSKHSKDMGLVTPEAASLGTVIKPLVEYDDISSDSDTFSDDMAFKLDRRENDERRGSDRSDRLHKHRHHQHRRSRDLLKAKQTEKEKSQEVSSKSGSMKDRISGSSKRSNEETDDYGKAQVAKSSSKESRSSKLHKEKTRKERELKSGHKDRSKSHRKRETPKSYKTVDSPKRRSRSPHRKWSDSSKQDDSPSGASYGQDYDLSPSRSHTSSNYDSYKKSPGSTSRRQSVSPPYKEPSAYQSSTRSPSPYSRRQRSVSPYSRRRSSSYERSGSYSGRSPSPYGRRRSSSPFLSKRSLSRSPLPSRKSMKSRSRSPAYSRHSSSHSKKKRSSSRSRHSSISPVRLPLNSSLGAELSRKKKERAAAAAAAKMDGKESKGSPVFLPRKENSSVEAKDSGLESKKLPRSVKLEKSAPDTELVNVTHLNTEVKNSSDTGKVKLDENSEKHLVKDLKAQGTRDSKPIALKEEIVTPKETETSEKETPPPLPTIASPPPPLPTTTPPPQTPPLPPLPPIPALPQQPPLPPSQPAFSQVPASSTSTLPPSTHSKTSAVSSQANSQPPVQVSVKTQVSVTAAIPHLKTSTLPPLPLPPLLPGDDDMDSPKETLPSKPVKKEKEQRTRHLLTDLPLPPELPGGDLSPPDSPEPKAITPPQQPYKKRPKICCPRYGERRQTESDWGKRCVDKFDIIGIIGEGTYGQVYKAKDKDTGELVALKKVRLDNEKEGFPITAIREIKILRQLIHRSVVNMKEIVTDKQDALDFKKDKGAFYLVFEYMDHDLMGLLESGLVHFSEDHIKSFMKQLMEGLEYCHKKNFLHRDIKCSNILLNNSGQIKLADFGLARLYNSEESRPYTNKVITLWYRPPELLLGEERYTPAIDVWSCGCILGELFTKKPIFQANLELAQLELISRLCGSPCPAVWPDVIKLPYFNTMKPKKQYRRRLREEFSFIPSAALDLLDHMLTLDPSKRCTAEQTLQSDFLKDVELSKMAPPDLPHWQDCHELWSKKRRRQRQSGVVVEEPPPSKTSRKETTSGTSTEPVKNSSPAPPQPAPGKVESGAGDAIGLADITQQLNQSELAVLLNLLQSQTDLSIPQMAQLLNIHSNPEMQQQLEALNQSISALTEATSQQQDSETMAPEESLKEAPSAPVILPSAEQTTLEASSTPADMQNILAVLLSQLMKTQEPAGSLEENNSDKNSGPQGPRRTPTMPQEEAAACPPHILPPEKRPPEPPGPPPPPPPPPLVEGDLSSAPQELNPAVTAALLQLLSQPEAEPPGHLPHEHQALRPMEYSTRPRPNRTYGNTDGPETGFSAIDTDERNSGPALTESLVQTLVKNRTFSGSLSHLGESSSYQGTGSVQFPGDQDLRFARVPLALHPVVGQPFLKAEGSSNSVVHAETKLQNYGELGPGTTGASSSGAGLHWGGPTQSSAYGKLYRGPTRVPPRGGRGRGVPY

With `Cc1nc2c(F)cc(-c3nc(Nc4nccc(Sc5cnc(N6CCC7(CC6)CO[C@@H](C)[C@H]7N)cn5)c4Cl)ncc3F)cc2n1C(C)C` the pIC50 [1] was 6.16, the Activity [2] was “Active” and the pIC50 [3] was 7.58. The Activity [4] was “Active”, the Vd [5] was 2.53 L/kg and the Activity [6] was “Active”. The Activity [7] was “Active”, the inhibition [8] was “Dde” and the pIC50 [9] was 6.01. The viability at 3 µM [10] was 82%, the Activity [11] was 1.25% and the pIC50 [12] was 6.19. It also gave an Activity [13] of 1.16%, a pIC50 [14] of under 4.70 and an AUC at 24 h [15] of 1200 ng·h/mL. The Cmax [16] was 383 ng/mL, the half-life [17] was 2.94 h and the pIC50 [18] was 6.33. The AUC at 24 h [19] was 5510 ng·h/mL, the inhibition in vivo at 40 mg/kg [20] was 80% and the Activity [21] was 58.9%. It also gave an Activity [22] of 7.29%, a pIC50 [23] of 5.75 and an Activity [24] of 5.24%. The Activity [25] was “Active” and the clearance [26] was 13.9 mL/min/kg.
